The text below walks through data of patent publication US10441744B2, “Flushable catheter affixed to a wash line activated by a microfluidic pressure switch” (priority 2013, dated 2019).

The experiment relates to cells attached to plastic surface. Put plainly: detachment and removal of cells from plastic surface by cleaning solutions. The class given is cell-based. As to the method: The first step with solution A: Solution A contains proteases. Proteases can be used to digest proteins attached to plastic surface. For example, trypsin can be used to release a cell layer from plastic dishes. An application of trypsin (pre-warmed at 37° C.) can lead the single cell layer to detach from the plastic bottom in a few minutes. When incubated at 30° C. (may be similar to the temperature of the part of catheters out of body), trypsin may detach heavy, multilayer cells from plastic surface in 30 min. Biofilm often contains multi-layers of cells can be digested and detach the layers of cells from plastic surface 30 min after trypsin incubation at 37° C.
The second step with solution B: While most of the cells may be detached by protease treatment (such as trypsin), a few cells may remain on the plastic surface, particularly when the incubation temperature is not at optimal digestive temperature (such as 37° C. for trypsin) as may happen for the part of catheters out of patients. Solution B may be used to continue the treatment for two purposes. Solution B contains high ion concentration that may reduce attachment of cell to plastic surface at room temperature. High ion concentration such as addition of 0.45M NaCl may also further reduce proteins binding to the surface (Ouyang et al., 1997). The second purpose is to deactivate remaining trypsin as a buffer without calcium and magnesium. […] Although it is not necessary to understand the mechanism of action of the current invention, it is believed that a higher concentration of saline solution (0.45M NaCl or above), similar to elution buffer for ion chromatography, helps to clean cells and/or proteins still attached to plastic due to charge of the ions.
The third step with solution C: After most of the bacterial and cells detach from plastic and wash away, 70% ethanol may be applied to kill possible bacterial remains and/or denature proteins still attached on the plastic surface. […]

Take trypsin: the “time to detach heavy, multilayer cells from plastic surface” value (incubated at 30° C.) was 30 min. The “time to digest and detach layers of cells (biofilm multi-layers) from plastic surface” value (trypsin incubation at 37° C.) was found to be 30 min. The “time for single cell layer to detach from the plastic bottom” value (trypsin pre-warmed at 37° C.) is reported as “a few minutes”.
